Data set [1] concerns the target T1, Aryl hydrocarbon receptor (Mus musculus, UniProt P30561).
T1 sequence (P30561 whole entry): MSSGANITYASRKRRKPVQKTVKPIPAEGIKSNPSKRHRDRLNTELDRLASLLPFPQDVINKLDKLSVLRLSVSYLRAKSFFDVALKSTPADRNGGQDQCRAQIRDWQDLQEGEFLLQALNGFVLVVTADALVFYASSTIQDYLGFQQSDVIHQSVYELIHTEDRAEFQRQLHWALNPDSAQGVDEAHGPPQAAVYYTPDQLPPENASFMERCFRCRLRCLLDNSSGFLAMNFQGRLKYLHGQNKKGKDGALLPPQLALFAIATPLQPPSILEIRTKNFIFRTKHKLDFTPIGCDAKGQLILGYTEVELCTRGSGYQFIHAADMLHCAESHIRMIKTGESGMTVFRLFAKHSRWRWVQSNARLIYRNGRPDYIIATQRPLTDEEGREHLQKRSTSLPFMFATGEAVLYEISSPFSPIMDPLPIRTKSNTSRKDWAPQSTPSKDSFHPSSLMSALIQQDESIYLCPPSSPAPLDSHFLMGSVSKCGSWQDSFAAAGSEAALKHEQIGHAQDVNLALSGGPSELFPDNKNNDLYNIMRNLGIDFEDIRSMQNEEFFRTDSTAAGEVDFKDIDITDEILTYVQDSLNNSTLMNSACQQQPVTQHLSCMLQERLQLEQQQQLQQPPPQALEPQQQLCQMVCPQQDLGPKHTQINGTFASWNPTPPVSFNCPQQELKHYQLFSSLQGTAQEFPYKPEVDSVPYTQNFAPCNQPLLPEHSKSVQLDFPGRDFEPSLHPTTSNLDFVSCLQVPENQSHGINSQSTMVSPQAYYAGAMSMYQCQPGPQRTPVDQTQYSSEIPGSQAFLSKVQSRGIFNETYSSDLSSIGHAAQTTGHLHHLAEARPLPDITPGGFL
In words: Antagonist activity at AhR receptor in kynurenine-stimulated mouse B16-F10 cells assessed as decrease in IL-6 gene expression at 10 to 30 uM measured after 24 hrs by RT-qPCR analysis. The class given is cell-based. The settings on record: b16-f10, 24 h, dose 10-30 µM.

Data set [2] concerns the target T1, Aryl hydrocarbon receptor. Put plainly: Antagonist activity at AhR receptor in kynurenine-stimulated mouse B16-F10 cells assessed as decrease in AhRR gene expression at 10 to 30 uM measured after 24 hrs by RT-qPCR analysis. The data set is classed as cell-based. As to conditions: b16-f10, 24 h, dose 10-30 µM; call rule not given here.
The target of data set [3] is T1, Aryl hydrocarbon receptor. Put plainly: Antagonist activity at AhR receptor in mouse B16-F10 cells assessed as inhibition of kynurenine-induced receptor nuclear translocation by measuring increase in receptor level in cytoplasm at 30 uM measured after 24 hrs by western blot analysis. The class given is subcellular. The settings on record: b16-f10, 24 h.
For data set [4], the target named is T1, Aryl hydrocarbon receptor. Put plainly: Antagonist activity at AhR receptor in kynurenine-stimulated mouse B16-F10 cells assessed as decrease in IDO-1 gene expression at 10 to 30 uM measured after 48 hrs by RT-qPCR analysis. The data set is classed as cell-based. As to conditions: b16-f10, 48 h, dose 10-30 µM.
In data set [5] the target is T1, Aryl hydrocarbon receptor. Put plainly: Antagonist activity at AhR receptor in mouse B16-F10 cells assessed as inhibition of kynurenine-induced receptor nuclear translocation by measuring increase in receptor level in cytoplasm at 10 to 30 uM measured after 72 hrs by Hoechst staining based immunofluorescence analysis. The data set is classed as cell-based. The settings on record: b16-f10, 72 h, dose 10-30 µM.

Data set [6] deals with T1, Aryl hydrocarbon receptor. In words: Antagonist activity at AhR receptor in mouse B16-F10 cells assessed as inhibition of kynurenine-induced receptor nuclear translocation by measuring decrease in receptor level in nucleus at 10 to 30 uM measured after 72 hrs by Hoechst staining based immunofluorescence analysis. The data set is classed as cell-based. The settings on record: b16-f10, 72 h, dose 10-30 µM.

The nature of data set [7]: Toxicity against C57BL/6 mouse xenografted with mouse B16-F10 cells assessed as change in body weight at 0.3 to 1 mg/kg, po administered daily and measured for 15 days. The class given is organism-based. The settings on record: in vivo, 360 h, dose 0.3-1 mg/kg, time 15 day.
The target in data set [8] is T1, Aryl hydrocarbon receptor. In words: Antagonist activity at AhR receptor in mouse B16-F10 cells assessed as inhibition of kynurenine-induced receptor nuclear translocation by measuring decrease in receptor level in nucleus at 30 uM measured after 24 hrs by western blot analysis. The data set is classed as subcellular. As to conditions: b16-f10, 24 h.
The test system of data set [9] is B16-F10. In words: animal or person. As to conditions: Mus musculus, B16-F10, 360 h, read-out: TGI.
Description: Antitumor activity against mouse B16-F10 cells xenografted in C57BL/6 mouse assessed as inhibition of tumor growth at 100 mg/kg, ip administered once a week and measured for 15 days

The structures appear in SMILES notation.

With `CC(=O)OC1Oc2c(C(C)C)cc3ccc4c(C)c(C)ccc4c3c2OC1c1ccccc1` (racemic), the “inhibition (INH)” value in data set [1], in [2], in [3], in data set [4], in [5] and in data set [6] was “Active” throughout. Also, the “inhibition (INH)” value in data set [8] was “Active”. Also, in [7], the Activity entry is “Non-Toxic”.

For `O=P1(N(CCCl)CCCl)NCCCO1` (centres undefined) [CYCLOPHOSPHAMIDE ANHYDROUS], the inhibition in vivo at 100 mg/kg in data set [9] is 92.2%.
